The results in this text go back to US20100267823A1, “AURONES AS SELECTIVE PDE INHIBITORS AND THEIR USE IN NEUROLOGICAL CONDITIONS AND DISORDERS” (priority 2009, published 2010).

Holding throughout (assay type): biochemical
The subject of assay [1] is PDE1 protein isolated from bovine brain. Briefly: PDE 1 inhibition assay ([3H]cAMP hydrolysis). As to conditions: final concentration of the test compound 10 μM. The method, then:
PDE1 protein isolated from bovine brain (MDS Pharma Services: cat. No. 146000) was pre-incubated with the respective test compound dissolved in 1% DMSO aqueous solution for 15 minutes at 25° C. in an incubation buffer (50 mM Tris-HCl, pH 7.5, 5 mM MgCl2, 2 mM CaCl2, 100 U/ml Calmodulin). After pre-incubation phase 1.01 μM [^3H]cAMP+cAMP where added as substrate to the buffer and the mixture was incubated for additional 20 minutes (25° C.).
(§1) At the end of incubation phase [^3H] Adenosine concentrations were quantified. The final concentration of the test compound is 10 μM.

The target of assay [2] is T1, PDE3 protein isolated from human platelets (Homo sapiens, UniProt Q14432).
T1 construct: PDE3 protein isolated from human platelets; tissue MDS Pharma Services 152000; host or cells: human platelets
T1 sequence (Q14432 whole entry): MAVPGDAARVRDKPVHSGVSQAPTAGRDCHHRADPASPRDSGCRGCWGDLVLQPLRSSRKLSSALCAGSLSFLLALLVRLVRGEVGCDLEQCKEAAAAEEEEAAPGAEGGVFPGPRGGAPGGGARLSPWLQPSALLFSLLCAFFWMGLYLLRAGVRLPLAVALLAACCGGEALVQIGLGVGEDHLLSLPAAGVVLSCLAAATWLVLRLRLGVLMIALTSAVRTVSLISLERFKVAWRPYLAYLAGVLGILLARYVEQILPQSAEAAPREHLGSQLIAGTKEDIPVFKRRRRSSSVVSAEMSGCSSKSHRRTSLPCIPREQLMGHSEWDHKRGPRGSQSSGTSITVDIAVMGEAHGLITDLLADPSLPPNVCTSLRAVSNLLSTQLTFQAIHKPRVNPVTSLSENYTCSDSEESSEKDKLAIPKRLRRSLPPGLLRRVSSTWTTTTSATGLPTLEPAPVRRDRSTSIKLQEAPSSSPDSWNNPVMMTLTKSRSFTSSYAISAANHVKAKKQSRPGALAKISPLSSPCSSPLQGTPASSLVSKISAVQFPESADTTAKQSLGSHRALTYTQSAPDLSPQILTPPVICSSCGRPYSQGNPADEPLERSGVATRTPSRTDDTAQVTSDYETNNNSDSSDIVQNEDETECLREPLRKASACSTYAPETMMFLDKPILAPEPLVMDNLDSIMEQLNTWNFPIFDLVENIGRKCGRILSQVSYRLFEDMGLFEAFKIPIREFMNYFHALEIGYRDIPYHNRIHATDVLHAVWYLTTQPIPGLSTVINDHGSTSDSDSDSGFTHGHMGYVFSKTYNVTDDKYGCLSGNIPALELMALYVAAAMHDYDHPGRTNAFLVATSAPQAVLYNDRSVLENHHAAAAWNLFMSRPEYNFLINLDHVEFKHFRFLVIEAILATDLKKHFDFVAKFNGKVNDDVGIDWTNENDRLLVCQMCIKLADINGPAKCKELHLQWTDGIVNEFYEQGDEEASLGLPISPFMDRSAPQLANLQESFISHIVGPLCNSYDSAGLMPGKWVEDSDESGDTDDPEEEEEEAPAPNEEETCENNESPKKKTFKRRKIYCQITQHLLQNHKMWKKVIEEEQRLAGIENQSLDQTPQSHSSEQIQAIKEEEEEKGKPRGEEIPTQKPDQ
Briefly: PDE 3 inhibition assay ([3H]cAMP hydrolysis). To be noted: final concentration of the test compound 10 μM; read-out: inhibition compared with the control (PDE 3). As for the experimental part: PDE3 protein isolated from human platelets (MDS Pharma Services: cat. No. 152000) was pre-incubated with the respective test compound dissolved in 1% DMSO aqueous solution for 15 minutes at 25° C. in an incubation buffer (50 mM Tris-HCl, pH 7.5, […], […]). After pre-incubation phase 1.01 μM [^3H]cAMP+cAMP where added as substrate to the buffer and the mixture was incubated for additional 20 minutes (25° C.). At the end of incubation phase [^3H] Adenosine concentrations were quantified. Stimulating or inhibiting effects equal or larger than 50% in comparison to vehicle (1% DMSO) control were considered as significant effects.
as §1

The subject of assay [3] is PDE4 protein from human leukemic monocyte lymphoma cell line (U937). Description: PDE 4 inhibition assay ([3H]cAMP hydrolysis). To be noted: final concentration of the test compound 10 μM. The method, then: PDE4 protein from human leukemic monocyte lymphoma cell line (U937, for example abcam ab3959) (MDS Pharma Services: cat. No. 152000) was pre-incubated with the respective test compound dissolved in 1% DMSO aqueous solution for 15 minutes at 25° C. in an incubation buffer (50 mM Tris-HCl, pH 7.5, 5 mM MgCl2, 2 mM CaCl2, 100 U/ml Calmodulin). After pre-incubation phase 1.01 μM [^3H]cAMP+cAMP where added as substrate to the buffer and the mixture was incubated for additional 20 minutes (25° C.). At the end of incubation phase [^3H] Adenosine concentrations were quantified.
as §1

As a reminder, the inhibition is the percentage by which the read-out fell short of the control. As for `O=C1/C(=C/c2ccc(O)cc2O)Oc2cc(O)cc(O)c21` [SM 29 (3), 2′,4,4′,6-Tetrahydroxy-aurone], the “inhibition compared with the control (PDE 1)” value in assay [1] came out at 52%. The inhibition at 10 µM in assay [2] amounted to 39%. Further, the “inhibition compared with the control (PDE 4)” value in assay [3] was 29%.
`O=C1/C(=C/c2ccc(O)cc2)Oc2cc(O)cc(O)c21` [SM 30(3), 4,4′,6-Trihydroxy-aurone]: the “inhibition compared with the control (PDE 1)” value in assay [1] is on record as 52%. The inhibition at 10 µM in assay [2] was found to be 74%. Also, the “inhibition compared with the control (PDE 4)” value in assay [3] came out at 41%.
